# Results as given in paper PMC6474902, “Examination of novel 4-aminoquinoline derivatives designed and synthesized by a hybrid pharmacophore approach to enhance their anticancer activities” (Scientific Reports, 2019).
# Where two headings read alike, the source gives them in different places.
# How the values were obtained:
# 184B5 = test: SRB antiproliferative/antigrowth assay, non-cancer cells; assay type: cell-based, human; conditions: Homo sapiens, 184B5, 48 h, read-out: GI50 184B5
# Description: (§1) The antigrowth effects of 4-piperazinylquinoline sulfonyl analogs on human breast tumor cells was initially evaluated using MDA-MB468 (a PTEN defective, EGFR positive breast adenocarcioma), MDA-MB231 (p53 and pRB mutated, triple-negative breast carcinoma), and MCF7 (p53+/−, invasive ductal breast carcinoma) cell lines. In addition, the cytotoxicity of all the compounds was also evaluated with the 184B5 and MCF10A non-cancer immortalized breast epithelial cell lines, to determine if these newly synthesized compounds have differential cytotoxic effects on cancer and non-cancer cells. The panel of three breast cancer cell lines with different genetic back ground and the well-studied two non-cancer immortalized breast cell lines would provide insights into the efficacy and toxicity of the test compounds in the different genetic background and at different stages of tumor development. The dose response of each cell line was established by determining the number of viable cells after 48 h of continuous drug treatment against seven different concentrations (100 µM to 0.0064 µM) of each compound. The reading of sulphorodamine B (SRB) staining is known to accurately reflect the level of total cellular macromolecules/cell growth/proliferation[6],[23]. […] The data for CQ and cisplatin were included as references. […] The differences in the GI50 values may be attributable to such factors as the nature of the sulfonyl group and the halogen substitution on the 7th position of the 4-piperazinylquinoline ring system, and the genetic and biochemical background of the cell lines.
# (§2) Antiproliferative/antigrowth effects were determined by a SRB-based protocol[6],[23]. For a typical screening experiment, 5,000–10,000 cells were inoculated into 100 µL medium per well of a 96-well microtiter plate as described previously. Briefly, after the inoculation, the microtiter plate was incubated at 37 °C, 5% CO2, 95% air and 100% relative humidity for 24 h, prior to addition of experimental drugs. Some of the sample wells were fixed with 25 µL of 50% tricholoroacetic acid (TCA) as a control of the cell population for each cell line at the time of drug addition (Tz). An aliquot of the frozen stock was thawed and diluted to a desired final maximum test-concentration with complete medium. Two to ten-fold serial dilutions were made to provide a total of seven drug concentrations (and a control [C]). Following addition of drugs, the culture plate was incubated for additional 48 h. Cells were fixed in situ by slowly adding 25 µL of ice-cold 50% (w/v) TCA (final concentration, 10% TCA), and were then incubated for 60 min at 4 °C. The supernatant was discarded, and the plate was washed five times with tap water, followed by air-dry. 50 µL of SRB solution at 0.4% (w/v) in 1% acetic acid was added to each well, and the plate was incubated for >30 min at room temperature. Unbound SRB was removed by five washes with tap water, followed by air-drying. The cells “stained” with SRB were solubilized with 10 mM trizma base, and the absorbance was read on an automated plate reader at a wavelength of 515–564 nm. The relative growth rate (%) was calculated for each of the compound concentrations according to the following formula: (Ti−Tz)/(C−Tz)×100
# (§3) In the formula, time zero (Tz), control growth (C), and OD for different concentration of tested compounds (Ti). The GI50 for each compound was obtained from a non-linear Sigmoidal dose-response (variable slope) curve which is fitted by GraphPad Prism v.4.03 software. Values were calculated for each of these parameters if the level of activity was reached. However, if the effect was not reached or was exceeded, the value for that parameter was expressed as greater or less than the maximum or minimum concentration tested.
# MCF10A = test: as above; assay type: cell-based, human; conditions: Homo sapiens, MCF-10A, SRB, 48 h post-treatment, non-cancer breast epithelial cells, read-out: GI50 MCF10A
# Description: as §1, §2, §3
# MDA-MB231 = test: SRB antiproliferative/antigrowth assay; assay type: cell-based, human; conditions: for GI50: Homo sapiens, SRB, 48 h post-treatment, mean of triplicates of at least two experiments, read-out: GI50 MB231
# Description: as §1, §2, §3
# MCF7 = test: SRB antiproliferative/antigrowth assay; assay type: cell-based, human; conditions: Homo sapiens, SRB, 48 h post-treatment, mean of triplicates of at least two experiments, read-out: GI50 MCF7
# Description: as §1, §2, §3
# MDA-MB468 = test: SRB antiproliferative/antigrowth assay; assay type: cell-based, human; conditions: Homo sapiens, SRB, 48 h post-treatment, mean of triplicates of at least two experiments, read-out: GI50 MB468
# Description: as §1, §2, §3
# [1] = SRB, 48 h post-treatment, non-cancer breast epithelial cells
SMILES,melting point [°C],"GI50 (MDA-MB231; MDA-MB-231, 48 h) [µM]","GI50 (MCF7; MCF7, 48 h) [µM]","GI50 (MDA-MB468; MDA-MB-468, 48 h) [µM]",GI50 (184B5; [1]) [µM],GI50 (MCF10A; 48 h) [µM],increase in antigrowth activity on MDA-MB231 in comparison to methyl substituted compound 16 (MDA-MB231) [fold],GI50 (184B5) [µM],GI50 (MCF10A) [µM],increase in antigrowth activity against MDA-MB231 compared to mono nitro substituted compounds (30 and 39) (MDA-MB231),GI50 (MDA-MB231; MDA-MB-231) [µM],GI50 (MCF7; MCF7) [µM],GI50 (MDA-MB468; MDA-MB-468) [µM],increase in potency on MDA-MB231 in comparison to methyl substituted compounds (25 and 34) (MDA-MB231)
"COC(=O)c1sccc1S(=O)(=O)N1CCN(c2ccnc3cc(Cl)ccc23)CC1 [Compound 15, Methyl 3-(4-(7-chloroquinolin-4-yl)piperazin-1-ylsulfonyl)thiophene-2-carboxylate]",117 to 119,40.4 ± 0.8,22.4 ± 0.2,30.2 ± 0.7,15.2 ± 0.2,14.6 ± 0.1,–,–,–,–,–,–,–,–
"O=S(=O)(c1ccc(Cl)cc1)N1CCN(c2ccnc3cc(C(F)(F)F)ccc23)CC1 [Compound 19, 4-[4-(4-Chloro-benzenesulfonyl)-piperazin-1-yl]-7-trifluoromethyl-quinoline]",144 to 146,41.4 ± 0.8,27.4 ± 0.3,34.9 ± 0.8,21.8 ± 0.3,13.6 ± 0.2,–,–,–,–,–,–,–,–
"O=S(=O)(c1ccc(Cl)cc1Cl)N1CCN(c2ccnc3cc(C(F)(F)F)ccc23)CC1 [Compound 20, 4-[4-(2,4-Dichloro-benzenesulfonyl)-piperazin-1-yl]-7-trifluoromethyl-quinoline]",137 to 139,20.3 ± 0.5,16.7 ± 0.2,18.6 ± 0.5,20.4 ± 0.2,15.6 ± 0.2,2,–,–,–,–,–,–,–
"COC(=O)c1sccc1S(=O)(=O)N1CCN(c2ccnc3cc(C(F)(F)F)ccc23)CC1 [Compound 24, 3-[4-(7-Trifluoromethyl-quinolin-4-yl)-piperazine-1-sulfonyl]-thiophene-2-carboxylic acid methyl ester]",117 to 119,34.7 ± 0.7,16 ± 0.2,23.9 ± 0.6,15.9 ± 0.1,15.8 ± 0.1,–,–,–,–,–,–,–,–
"O=S(=O)(NCCCNc1ccnc2cc(Cl)ccc12)c1ccc(Cl)cc1Cl [Compound 29, 2,4-Dichloro-N-[3-(7-chloro-quinolin-4-ylamino)-propyl]-benzenesulfonamide]",145 to 147,6.8 ± 0.6,4 ± 0.2,3.6 ± 0.1,3.6 ± 0.2,6.8 ± 0.4,–,–,–,–,–,–,–,–
"O=[N+]([O-])c1ccc(S(=O)(=O)NCCCNc2ccnc3cc(Cl)ccc23)c([N+](=O)[O-])c1 [Compound 31, N-[3-(7-Chloro-quinolin-4-ylamino)-propyl]-2,4-dinitro-benzenesulfonamide]",238 to 240,–,–,–,–,–,–,9.1 ± 0.6,19.8 ± 0.9,1.7–2.3 fold,8.9 ± 0.7,6.2 ± 0.3,7.4 ± 0.2,–
"CS(=O)(=O)NCCCNc1ccnc2cc(C(F)(F)F)ccc12 [Compound 34, N-[3-(7-Trifluoromethyl-quinolin-4-ylamino)-propyl]-methanesulfonamide]",171 to 173,55.9 ± 1.6,25.3 ± 1.3,30.4 ± 1,59.5 ± 1.6,85 ± 1.2,–,–,–,–,–,–,–,–
"O=S(=O)(NCCCNc1ccnc2cc(C(F)(F)F)ccc12)c1ccc(-c2ccccc2)cc1 [Compound 36, Biphenyl-4-sulfonic acid [3-(7-trifluoromethyl-quinolin-4-ylamino)-propyl]-amide]",110 to 112,6 ± 0.4,3.6 ± 0.3,4.2 ± 0.2,2.8 ± 0.1,2.2 ± 0.3,–,–,–,–,–,–,–,–
"O=S(=O)(NCCCNc1ccnc2cc(C(F)(F)F)ccc12)c1ccc(Cl)cc1 [Compound 37, 4-Chloro-N-[3-(7-trifluoromethyl-quinolin-4-ylamino)-propyl]-benzenesulfonamide]",70 to 72,12.8 ± 0.9,5.4 ± 0.3,10.3 ± 0.6,7.6 ± 0.4,17.4 ± 0.1,–,–,–,–,–,–,–,3.5–4.4 fold

# The remaining compounds from weak to strong by GI50 (MDA-MB231; MDA-MB-231, 48 h), led by results:
melting point [°C],"GI50 (MDA-MB231; MDA-MB-231, 48 h) [µM]","GI50 (MCF7; MCF7, 48 h) [µM]","GI50 (MDA-MB468; MDA-MB-468, 48 h) [µM]",SMILES,GI50 (184B5; [1]) [µM],GI50 (MCF10A; 48 h) [µM],increase in antigrowth activity on MDA-MB231 in comparison to methyl substituted compound 16 (MDA-MB231) [fold],GI50 (184B5) [µM],GI50 (MCF10A) [µM],increase in antigrowth activity against MDA-MB231 compared to mono nitro substituted compounds (30 and 39) (MDA-MB231),GI50 (MDA-MB231; MDA-MB-231) [µM],GI50 (MCF7; MCF7) [µM],GI50 (MDA-MB468; MDA-MB-468) [µM],increase in potency on MDA-MB231 in comparison to methyl substituted compounds (25 and 34) (MDA-MB231)
126 to 128,42.7 ± 0.8,20.8 ± 0.2,36.5 ± 0.8,"Cc1ccc(S(=O)(=O)N2CCN(c3ccnc4cc(C(F)(F)F)ccc34)CC2)cc1 [Compound 17, 4-[4-(Toluene-4-sulfonyl)-piperazin-1-yl]-7-trifluoromethyl-quinoline]",12.9 ± 0.1,10.5 ± 0.1,–,–,–,–,–,–,–,–
148 to 150,27.2 ± 0.6,14.8 ± 0.2,20.5 ± 0.5,"O=S(=O)(c1ccc(-c2ccccc2)cc1)N1CCN(c2ccnc3cc(C(F)(F)F)ccc23)CC1 [Compound 18, 4-[4-(Biphenyl-4-sulfonyl)-piperazin-1-yl]-7-trifluoromethyl-quinoline]",19.1 ± 0.2,15.5 ± 0.4,–,–,–,–,–,–,–,–
98 to 100,22.1 ± 0.6,12.9 ± 0.2,19.1 ± 0.6,"CN(C)c1cccc2c(S(=O)(=O)N3CCN(c4ccnc5cc(C(F)(F)F)ccc45)CC3)cccc12 [Compound 23, Dimethyl-{5-[4-(7-trifluoromethyl-quinolin-4-yl)-piperazine-1-sulfonyl]-naphthalen-1-yl}-amine]",12 ± 0.2,15.4 ± 0.5,–,–,–,–,–,–,–,–
117 to 119,7 ± 0.6,5.2 ± 0.3,3.9 ± 0.1,"O=S(=O)(NCCCNc1ccnc2cc(C(F)(F)F)ccc12)c1ccc(Cl)cc1Cl [Compound 38, 2,4-Dichloro-N-[3-(7-trifluoromethyl-quinolin-4-ylamino)-propyl]-benzenesulfonamide]",3.2 ± 0.1,5.3 ± 0.3,–,–,–,–,–,–,–,–
116 to 118,4.6 ± 0.4,2.5 ± 0.2,4.5 ± 0.4,"O=S(=O)(NCCCNc1ccnc2cc(Cl)ccc12)c1ccc(-c2ccccc2)cc1 [Compound 27, Biphenyl-4-sulfonic acid [3-(7-chloro-quinolin-4-ylamino)-propyl]-amide]",2.4 ± 0.1,2.6 ± 0.1,–,–,–,–,–,–,–,–
